Paper PMC12566511, “The Evaluation of (1R,4R,7R,10R)-α,α′,α″,α‴-Tetramethyl-1,4,7,10-tetraazacyclododecane-1,4,7,10-tetraacetic Acid (DOTMA) as a Chelator for Zirconium-89” (Molecules, 2025)
Entries after “also recorded” stand apart in the source; their conditions may differ.

Columns and labels:
Format in all cases: physicochemical
[1] = Partition coefficient (LogP), water/octanol partition method; conditions: octanol/water (pH 5.5), room temperature, n = 5
Experimental: The partition coefficient (LogP) was determined by adding 5 μL of [^89Zr]Zr-DOTMA (~5 μCi; 0.19 MBq) to a mixture of 500 μL of octanol and 500 μL of water (pH 5.5). The resulting solutions (n = 5) were vigorously vortexed for 5 min at room temperature, then centrifuged for 5 min to ensure complete separation of layers. From each of the five sets, a 50 μL aliquot was removed from each phase into new tubes and counted separately in a gamma counter. Each organic phase was washed with water to remove any radioactivity remaining in the organic phase before gamma counting. The partition coefficient was calculated as a ratio of counts in the octanol fraction to counts in the water fraction. The LogP values were reported as an average of five measurements.

[2] = In vitro EDTA challenge study; conditions: for % Intact of [^89Zr]Zr-Complex (n = 3): 37 °C, radio-ITLC
Experimental: The solutions (n = 3) were incubated at 37 °C for 7 days in a thermomixer. Samples were analyzed at 0, 1, 3, 5, and 7 days post administration to EDTA using radio-TLC, Varian ITLC-SA strips, 50 mM EDTA (pH 5) as the mobile phase, and gamma counting. All studies were performed in triplicate.

[3] = In vitro metal competition study; conditions: for % Intact of [^89Zr]Zr-Complex (n = 3): PBS pH 7.4, 37 °C, radio-ITLC
Experimental: To separate solutions of metal cations (iron(III) chloride, cobalt(II) chloride, zinc(II) chloride, copper(II) chloride, magnesium(II) chloride, gallium(III) nitrate, and gadolinium(III) chloride) (1.0 mM, 200 μL), [^89Zr]Zr-DOTMA complex (0.1 mM, 20 μL, 110−119 μCi, 4.1–4.4 MBq) in PBS (pH 7.4) was added. The resulting solutions (n = 3) were incubated at 37 °C for 7 days in a thermomixer. Dissociation of ^89Zr from [^89Zr]Zr-DOTMA complex was monitored by radio-TLC at 0, 1, 3, 5, and 7 days using radio-TLC, Varian ITLC-SA strips, 50 mM EDTA (pH 5) as the mobile phase, and gamma counting. All studies were performed in triplicate.

CC(C(=O)[O-])N1CCN(C(C)C(=O)[O-])CCN(C(C)C(=O)[O-])CCN(C(C)C(=O)[O-])CC1.[89Zr+4] (centres unmarked) [[^89Zr]Zr-DOTMA]
LogP [1]: −2.97± 0.02 | stability to excess EDTA challenge (in words) ([2]; 1000-fold excess EDTA, pH 5 or pH 7, seven-day time course): inert; also recorded: stable | % Intact of [^89Zr]Zr-Complex (n = 3) ([2]; EDTA 100-fold, pH 5.0, 0 h): ≥99.99% | % Intact of [^89Zr]Zr-Complex (n = 3) ([2]; EDTA 100-fold, pH 5.0, 1 d): ≥99.99% | % Intact of [^89Zr]Zr-Complex (n = 3) ([2]; EDTA 100-fold, pH 5.0, 3 d): ≥99.99% | % Intact of [^89Zr]Zr-Complex (n = 3) ([2]; EDTA 100-fold, pH 5.0, 5 d): ≥99.99% | % Intact of [^89Zr]Zr-Complex (n = 3) ([2]; EDTA 100-fold, pH 5.0, 7 d): ≥99.99% | % Intact of [^89Zr]Zr-Complex (n = 3) ([2]; EDTA 100-fold, pH 7.0, 0 h): ≥99.99% | % Intact of [^89Zr]Zr-Complex (n = 3) ([2]; EDTA 100-fold, pH 7.0, 1 d): ≥99.99% | % Intact of [^89Zr]Zr-Complex (n = 3) ([2]; EDTA 100-fold, pH 7.0, 3 d): ≥99.99% | % Intact of [^89Zr]Zr-Complex (n = 3) ([2]; EDTA 100-fold, pH 7.0, 5 d): ≥99.99% | % Intact of [^89Zr]Zr-Complex (n = 3) ([2]; EDTA 100-fold, pH 7.0, 7 d): ≥99.99% | % Intact of [^89Zr]Zr-Complex (n = 3) ([2]; EDTA 500-fold, pH 5.0, 0 h): ≥99.99% | % Intact of [^89Zr]Zr-Complex (n = 3) ([2]; EDTA 500-fold, pH 5.0, 1 d): ≥99.99% | % Intact of [^89Zr]Zr-Complex (n = 3) ([2]; EDTA 500-fold, pH 5.0, 3 d): ≥99.99% | % Intact of [^89Zr]Zr-Complex (n = 3) ([2]; EDTA 500-fold, pH 5.0, 5 d): ≥99.99% | % Intact of [^89Zr]Zr-Complex (n = 3) ([2]; EDTA 500-fold, pH 5.0, 7 d): ≥99.99% | % Intact of [^89Zr]Zr-Complex (n = 3) ([2]; EDTA 500-fold, pH 7.0, 0 h): ≥99.99% | % Intact of [^89Zr]Zr-Complex (n = 3) ([2]; EDTA 500-fold, pH 7.0, 1 d): ≥99.99% | % Intact of [^89Zr]Zr-Complex (n = 3) ([2]; EDTA 500-fold, pH 7.0, 3 d): ≥99.99% | % Intact of [^89Zr]Zr-Complex (n = 3) ([2]; EDTA 500-fold, pH 7.0, 5 d): ≥99.99% | % Intact of [^89Zr]Zr-Complex (n = 3) ([2]; EDTA 500-fold, pH 7.0, 7 d): ≥99.99% | % Intact of [^89Zr]Zr-Complex (n = 3) ([2]; EDTA 1000-fold, pH 5.0, 0 h): ≥99.99% | % Intact of [^89Zr]Zr-Complex (n = 3) ([2]; EDTA 1000-fold, pH 5.0, 1 d): ≥99.99% | % Intact of [^89Zr]Zr-Complex (n = 3) ([2]; EDTA 1000-fold, pH 5.0, 3 d): ≥99.99% | % Intact of [^89Zr]Zr-Complex (n = 3) ([2]; EDTA 1000-fold, pH 5.0, 5 d): ≥99.99% | % Intact of [^89Zr]Zr-Complex (n = 3) ([2]; EDTA 1000-fold, pH 5.0, 7 d): ≥99.99% | % Intact of [^89Zr]Zr-Complex (n = 3) ([2]; EDTA 1000-fold, pH 7.0, 0 h): ≥99.99% | % Intact of [^89Zr]Zr-Complex (n = 3) ([2]; EDTA 1000-fold, pH 7.0, 1 d): ≥99.99% | % Intact of [^89Zr]Zr-Complex (n = 3) ([2]; EDTA 1000-fold, pH 7.0, 3 d): ≥99.99% | % Intact of [^89Zr]Zr-Complex (n = 3) ([2]; EDTA 1000-fold, pH 7.0, 5 d): ≥99.99% | % Intact of [^89Zr]Zr-Complex (n = 3) ([2]; EDTA 1000-fold, pH 7.0, 7 d): ≥99.99% | % Intact of [^89Zr]Zr-Complex (n = 3) ([3]; Co^2+, 0 h): ≥99.99% | % Intact of [^89Zr]Zr-Complex (n = 3) ([3]; Co^2+, 1 d): ≥99.99% | % Intact of [^89Zr]Zr-Complex (n = 3) ([3]; Co^2+, 3 d): ≥99.99% | % Intact of [^89Zr]Zr-Complex (n = 3) ([3]; Co^2+, 5 d): ≥99.99% | % Intact of [^89Zr]Zr-Complex (n = 3) ([3]; Co^2+, 7 d): ≥99.99% | % Intact of [^89Zr]Zr-Complex (n = 3) ([3]; Cu^2+, 0 h): ≥99.99% | % Intact of [^89Zr]Zr-Complex (n = 3) ([3]; Cu^2+, 1 d): ≥99.99% | % Intact of [^89Zr]Zr-Complex (n = 3) ([3]; Cu^2+, 3 d): ≥99.99% | % Intact of [^89Zr]Zr-Complex (n = 3) ([3]; Cu^2+, 5 d): ≥99.99% | % Intact of [^89Zr]Zr-Complex (n = 3) ([3]; Cu^2+, 7 d): ≥99.99% | % Intact of [^89Zr]Zr-Complex (n = 3) ([3]; Fe^3+, 0 h): ≥99.99% | % Intact of [^89Zr]Zr-Complex (n = 3) ([3]; Fe^3+, 1 d): ≥99.99% | % Intact of [^89Zr]Zr-Complex (n = 3) ([3]; Fe^3+, 3 d): ≥99.99% | % Intact of [^89Zr]Zr-Complex (n = 3) ([3]; Fe^3+, 5 d): ≥99.99% | % Intact of [^89Zr]Zr-Complex (n = 3) ([3]; Fe^3+, 7 d): ≥99.99% | demetallation when challenged with high concentrations of metal ions (in words) ([3]; Fe^3+, Co^2+, Zn^2+, Cu^2+, Mg^2+, Ga^3+ or Gd^3+ ions, seven-day time course): inert; also recorded: no demetallation | % Intact of [^89Zr]Zr-Complex (n = 3) ([3]; Ga^3+, 0 h): ≥99.99% | % Intact of [^89Zr]Zr-Complex (n = 3) ([3]; Ga^3+, 1 d): ≥99.99% | % Intact of [^89Zr]Zr-Complex (n = 3) ([3]; Ga^3+, 3 d): ≥99.99% | % Intact of [^89Zr]Zr-Complex (n = 3) ([3]; Ga^3+, 5 d): ≥99.99% | % Intact of [^89Zr]Zr-Complex (n = 3) ([3]; Ga^3+, 7 d): ≥99.99% | % Intact of [^89Zr]Zr-Complex (n = 3) ([3]; Gd^3+, 0 h): ≥99.99% | % Intact of [^89Zr]Zr-Complex (n = 3) ([3]; Gd^3+, 1 d): ≥99.99% | % Intact of [^89Zr]Zr-Complex (n = 3) ([3]; Gd^3+, 3 d): ≥99.99% | % Intact of [^89Zr]Zr-Complex (n = 3) ([3]; Gd^3+, 5 d): ≥99.99% | % Intact of [^89Zr]Zr-Complex (n = 3) ([3]; Gd^3+, 7 d): ≥99.99% | % Intact of [^89Zr]Zr-Complex (n = 3) ([3]; Mg^2+, 0 h): ≥99.99% | % Intact of [^89Zr]Zr-Complex (n = 3) ([3]; Mg^2+, 1 d): ≥99.99% | % Intact of [^89Zr]Zr-Complex (n = 3) ([3]; Mg^2+, 3 d): ≥99.99% | % Intact of [^89Zr]Zr-Complex (n = 3) ([3]; Mg^2+, 5 d): ≥99.99% | % Intact of [^89Zr]Zr-Complex (n = 3) ([3]; Mg^2+, 7 d): ≥99.99% | % Intact of [^89Zr]Zr-Complex (n = 3) ([3]; Zn^2+, 0 h): ≥99.99% | % Intact of [^89Zr]Zr-Complex (n = 3) ([3]; Zn^2+, 1 d): ≥99.99% | % Intact of [^89Zr]Zr-Complex (n = 3) ([3]; Zn^2+, 3 d): ≥99.99% | % Intact of [^89Zr]Zr-Complex (n = 3) ([3]; Zn^2+, 5 d): ≥99.99% | % Intact of [^89Zr]Zr-Complex (n = 3) ([3]; Zn^2+, 7 d): ≥99.99%
